Test results reported in patent US20070128586A1, “Therapeutic, prophylactic and diagnostic agents” (priority 2003, published 2007).

Tests used:
[1] = Plasma endotoxin assay (chromogenic limulus amoebocyte lysate), cirrhotic patients; type: in vivo, human
TNF-α = assay: Serum TNF-α assay (Quantikine HS immunoassay), cirrhotic patients; type: in vivo, human; settings: Child-Pugh B/C patients, n = 7; controls 1.7, no lactulose 3.1
sTNF RI (p55) = assay: Serum sTNFR assay, sTNF RI (p55), cirrhotic patients; type: in vivo, human; settings: Child-Pugh B/C patients, n = 7; controls 1643, no lactulose 3852
Protocol: (§1) Peripheral blood was drawn using pyrogen-free needles, syringes and containers (Becton-Dickinson, Singapore). Plasma and serum were separated in a refrigerated centrifuge at 4° C. and stored at −70° C. in pyrogen-free polyethylene cryotubes (Nunc, Denmark) until analysis within six weeks of collection. Whole blood was used for determination of TLR expression on peripheral blood monocytes. Serum sTNF RI (p55) and sTNF RII (p75) were measured using Quantikine HS Human sTNFR Immunoassays (R&D Systems Inc., Minneapolis, USA), according to the manufacturer's instructions.

sTNF RII (p75) = assay: Serum sTNFR assay, sTNF RII (p75), cirrhotic patients; type: in vivo, human; settings: Child-Pugh B/C patients, n = 7; controls 2438, no lactulose 5933
Protocol: as §1

TLR-2 = assay: Flow cytometry for TLR-2 expression on CD14+ve peripheral blood monocytes, cirrhotic patients; type: in vivo, human; settings: Child-Pugh B/C patients, n = 7; ratio of geometric mean fluorescence to mean control values
TLR-4 = assay: Flow cytometry for TLR-4 expression on CD14+ve peripheral blood monocytes, cirrhotic patients; type: in vivo, human; settings: Child-Pugh B/C patients, n = 7; ratio of geometric mean fluorescence to mean control values
From the text: Isotype matched non-binding controls were used for comparison. Ten thousand CD14^+ve cells were acquired for each sample and dead cells were gated out based on their light scatter properties on FACSCaliber flow cytometer (Becton Dickinson, USA). At least two control patients were used for standardization purposes every flow cytometry session. TLR-2 and TLR-4 values were expressed as a ratio of the geometric mean fluorescence of individual study patients to mean control values for that session.

PBMCs [2] = assay: In vitro production of TNF-α by PBMCs stimulated with endotoxin; type: cell-based, human; settings: Child-Pugh B/C patients, n = 7; endotoxin 10 ng/mL, 20 h; ratio stimulated to unstimulated cells
PBMCs [3] = assay: In vitro production of TNF-α by PBMCs stimulated with SEB; type: cell-based, human; settings: Child-Pugh B/C patients, n = 7; SEB 10 ng/mL, 20 h; ratio stimulated to unstimulated cells
HBV = HBV DNA in chronic Hepatitis B patients (Cobas Amplicor HBV Monitor Test); type: in vivo, Hepatitis B virus; settings: five CHB patients; fell from >200,000 following treatment with lamivudine
Protocol: Eighteen non-cirrhotic patients with chronic Hepatitis B (CHB) and on-going viral replication (HBV DNA >200,000 genomes/mL, n=12 and 200-10,000 genomes/mL, n=6; Cobas Amplicor HBV Monitor (trademark) Test, USA) and 32 healthy control subjects were studied. TLR-2 and TLR-4 expression on CD14^+ve peripheral blood mononuclear cells (PBMC's) was measured by flow cytometry using anti-CD14 (Becton Dickinson) and anti-TLR-2 and anti-TLR-4 (eBioscience, USA) monoclonal antibodies. TLR expression was reassessed in five patients in whom HBV DNA fell from >200,000 to <200 genomes/mL following treatment with lamivudine. In vitro TLR-2 expression by PBMCs was measured in five control subjects at baseline and following stimulation for 20 h by partially purified recombinant HBV. […] TLR-2 expression normalised in each of the five lamivudine-treated CHB patients in whom HBV DNA became undetectable. In vitro expression of TLR-2 fell in a concentration-dependent manner following exposure to recombinant HBV.

Compound | Plasma endotoxin, Median ([1]; Child-Pugh B/C patients, n = 7, controls 25, no lactulose 49) [pg/mL] | Plasma endotoxin values compared with control subjects ([1]; subgroup of Child-Pugh B and C patients treated with lactulose) | Serum TNF-α, Median (TNF-α) [pg/mL] | Serum soluble TNF receptor I, Median (sTNF RI (p55)) [pg/mL] | Serum soluble TNF receptor II, Median (sTNF RII (p75)) [pg/mL] | Expression of TLR-2 on CD14+ve PBMCs, Median (TLR-2) | Expression of TLR-4 on CD14+ve PBMCs, Median (TLR-4) | In vitro production of TNF-α by PBMCs in response to endotoxin, Median (PBMCs [2]) | In vitro production of TNF-α by PBMCs in response to SEB, Median (PBMCs [3]) | HBV DNA following treatment (HBV) [genomes/mL]
OC[C@H]1O[C@@H](O[C@@H]2[C@@H](CO)OC(O)(CO)[C@H]2O)[C@H](O)[C@@H](O)[C@H]1O (mixture of isomers) [lactulose] | 13 | not significantly different from those in control subjects | 4.2 | 3878 | 5440 | 1.29 | 1.06 | 3.1 | 1.5 | 
Nc1ccn([C@@H]2CS[C@H](CO)O2)c(=O)n1 [lamivudine] |  |  |  |  |  |  |  |  |  | < 200
